Results published in the supplement of paper PMC10307832.

What was measured:
Assay in all cases: relative viability (nuclei count vs DMSO), 5 days (fraction); higher = more cells survive
Dovitinib + Pictilisib = compound: CN1CCN(c2ccc3nc(-c4c(N)c5c(F)cccc5[nH]c4=O)[nH]c3c2)CC1 [Dovitinib] + CS(=O)(=O)N1CCN(Cc2cc3nc(-c4cccc5[nH]ncc45)nc(N4CCOCC4)c3s2)CC1 [Pictilisib] (partner 1 µM)
Summary of the method: (§1)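 A single step with final 0.05% Triton X-100, 1% formaldehyde and 1 ug/ml Hoechst fixed the cells and stained nuclei 5 days after treatment. Lung cancer cell lines in 1536-well plates had been treated by pin tool the day after seeding with one drug alone or a fixed anchor-drug dose plus five library-drug doses (not always all listed) in √10 steps, and nuclei were counted on 4× images. Relative viability is the ratio of nuclei in treated wells to nuclei in vehicle wells, taken as the median of duplicate plates.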

Dovitinib + Bortezomib = compound: CN1CCN(c2ccc3nc(-c4c(N)c5c(F)cccc5[nH]c4=O)[nH]c3c2)CC1 [Dovitinib] + CC(C)C[C@H](NC(=O)[C@H](Cc1ccccc1)NC(=O)c1cnccn1)B(O)O [Bortezomib] (partner 0.002 µM)
Summary of the method: as §1

Dovitinib + Foretinib = compound: CN1CCN(c2ccc3nc(-c4c(N)c5c(F)cccc5[nH]c4=O)[nH]c3c2)CC1 [Dovitinib] + COc1cc2c(Oc3ccc(NC(=O)C4(C(=O)Nc5ccc(F)cc5)CC4)cc3F)ccnc2cc1OCCCN1CCOCC1 [Foretinib] (partner 0.25 µM)
Summary of the method: as §1

Dovitinib + Palbociclib = compound: CN1CCN(c2ccc3nc(-c4c(N)c5c(F)cccc5[nH]c4=O)[nH]c3c2)CC1 [Dovitinib] + CC(=O)c1c(C)c2cnc(Nc3ccc(N4CCNCC4)cn3)nc2n(C2CCCC2)c1=O [Palbociclib] (partner 0.5 µM)
Summary of the method: as §1

Cell Line	relative viability (Dovitinib + Pictilisib; first compound 0.02 µM)	relative viability (Dovitinib + Pictilisib; first compound 0.06325 µM)	relative viability (Dovitinib + Pictilisib; first compound 0.2 µM)	relative viability (Dovitinib + Pictilisib; first compound 0.6325 µM)	relative viability (Dovitinib + Pictilisib; first compound 2 µM)	relative viability (Dovitinib + Bortezomib; first compound 0.02 µM)	relative viability (Dovitinib + Bortezomib; first compound 0.06325 µM)	relative viability (Dovitinib + Bortezomib; first compound 0.2 µM)	relative viability (Dovitinib + Bortezomib; first compound 0.6325 µM)	relative viability (Dovitinib + Bortezomib; first compound 2 µM)	relative viability (Dovitinib + Foretinib; first compound 0.02 µM)	relative viability (Dovitinib + Foretinib; first compound 0.06325 µM)	relative viability (Dovitinib + Foretinib; first compound 0.2 µM)	relative viability (Dovitinib + Foretinib; first compound 0.6325 µM)	relative viability (Dovitinib + Foretinib; first compound 2 µM)	relative viability (Dovitinib + Palbociclib; first compound 0.02 µM)	relative viability (Dovitinib + Palbociclib; first compound 0.06325 µM)	relative viability (Dovitinib + Palbociclib; first compound 0.2 µM)	relative viability (Dovitinib + Palbociclib; first compound 0.6325 µM)	relative viability (Dovitinib + Palbociclib; first compound 2 µM)
LCLC-103H	0.661	0.555	0.645	0.614	0.577	1	1.07	1.01	0.987	1.13	0.901	0.674	0.826	0.79	0.764	0.482	0.454	0.496	0.474	0.462
LOU-NH91	0.523	0.553	0.526	0.518	0.535	0.433	0.502	0.479	0.585	0.401	0.926	0.896	0.95	0.921	1.05	0.526	0.528	0.535	0.553	0.525
LU99A	0.312	0.323	0.336	0.359	0.34	1.15	1.08	0.987	1.05	1.32	0.714	0.782	0.79	0.812	0.932	0.388	0.37	0.387	0.423	0.406
LXF-289	0.716	0.801	0.842	0.862	0.783	0.924	1	1.02	0.935	0.968	0.99	1.01	0.882	1.02	0.953	0.577	0.604	0.621	0.598	0.566
NCI-H23	0.44	0.444	0.451	0.493	0.433	0.925	1.02	1.01	1.05	1.22	0.899	0.913	1.09	0.962	0.983	0.482	0.58	0.574	0.515	0.541
NCI-H322M	0.501	0.446	0.464	0.542	0.674	1.21	1.21	1.19	1.12	1.16	0.95	0.898	0.941	0.923	0.869	0.46	0.471	0.468	0.482	0.487
NCI-H441	0.521	0.528	0.517	0.477	0.47	0.497	0.593	0.352	0.531	0.433	0.832	1.08	0.774	1.11	1.05	0.22	0.195	0.212	0.221	0.194
NCI-H460	0.32	0.26	0.342	0.335	0.344	1.01	1.2	1.09	1.11	1.08	1	1.03	1.12	0.918	1.03	0.147	0.226	0.159	0.163	0.142
NCI-H520	0.203	0.247	0.337	0.269	0.227	0.527	0.725	0.63	0.488	0.348	0.698	0.894	0.818	0.733	0.698	0.206	0.213	0.214	0.266	0.162
NCI-H647	0.285	0.413	0.457	0.414	0.419	0.993	1.08	1.13	0.897	0.667	1.23	1.15	1.39	1.17	1.26	0.337	0.427	0.378	0.402	0.431
NCI-H650	0.867	0.789	0.931	0.758	1.01	0.883	0.711	0.729	0.709	0.806	0.955	1.02	1.1	1	1.15	0.321	0.333	0.359	0.317	0.357
NCI-H661	0.427	0.465	0.455	0.427	0.359	0.852	0.746	0.937	0.934	0.85	1.05	1	1.08	1.07	1.12	0.414	0.453	0.429	0.426	0.432
NCI-H727	0.456	0.379	0.423	0.427	0.395	0.937	0.733	0.92	0.845	1.27	0.815	0.689	0.747	0.799	0.706	0.667	0.62	0.669	0.671	0.668
NCI-H838	0.458	0.431	0.499	0.466	0.503	0.639	0.699	0.851	0.76	0.758	1.05	1.02	1.04	0.937	0.961	0.231	0.209	0.217	0.217	0.228
NCI-H1355	0.459	0.305	0.478	0.479	0.48	1.31	1.19	1.17	1.2	1.42	0.943	0.932	0.713	0.976	0.903	0.416	0.41	0.465	0.397	0.415
NCI-H1437	0.512	0.537	0.434	0.494	0.464	0.471	0.575	0.493	0.49	0.523	1.24	1.29	1.22	1.2	1.27	0.305	0.301	0.321	0.32	0.321
